This assay relates to C57BL/6 EOPS male mice. Description: Effect of metformin and orlistat co-administration on body weight in mice fed with high-fat diet. The format is in vivo. To be noted: p.o. mixed with the diet, orlistat 2 mg/kg, metformin 100 mg/kg, mean±s.e.m. The procedure:
This study was designed to evaluate the effects of a combination of metformin and orlistat on body weight.
Animals: C57BL/6 EOPS male mice, weighing approximately 20 g, were used in the study. C57BL/6 EOPS mice are normal mice which, when subjected to a high-fat diet, become obese and develop hyperglycaemia. They were put by 5 into individual cages in a temperature-, humidity- and light-controlled room (21-23° C.±2° C., 12 h-12 h light-dark cycle). […] After acclimatization, they were randomized into groups of 20, based on body weight.
The experimental groups were:
Group 1: mice fed with standard diet
Group 2: mice fed with high-fat diet, treated with orlistat 2 mg/kg p.o., mixed with the diet
Group 3: mice fed with high-fat diet, treated with metformin 100 mg/kg p.o., mixed with the diet
Group 4: mice fed with high-fat diet, treated with orlistat 2 mg/kg p.o. and metformin 100 mg/kg p.o., mixed with the diet.
Body weight was recorded at the beginning of the study, and after one and three weeks of treatment, respectively.
Statistics: All data are presented as mean±s.e.m. Results were subjected to covariance analysis corrected from baseline followed by Turkey-Kramer adjustment for multiple comparisons. A p<0.1 was considered significant (vs. standard diet).

The values that follow come from patent publication US20070060532A1, “Use of metformin and orlistat for the treatment or prevention of obesity” (Fournier Laboratories Ireland Limited, priority 2004, published 2007).

Turning to `CCCCCCCCCCC[C@@H](C[C@@H]1OC(=O)[C@H]1CCCCCC)OC(=O)[C@H](CC(C)C)NC=O` (relative stereo) [Orlistat, [2S-[2α(R*),3β]]-N-formyl-L-leucine 1-[(3-hexyl-4-oxo-2-oxetanyl)methyl]dodecyl ester], the “Body weight gain (g) after 1 week” value was “+3.2 ± 0.48 g” and the “Body weight gain (g) after 3 weeks” value is “+5.5 ± 0.63 g”.
In the case of `CN(C)C(=N)NC(=N)N` [Metformin, 1,1-dimethylbiguanide], the “Body weight gain (g) after 1 week” value was “+1.3 ± 0.14 g” and the “Body weight gain (g) after 3 weeks” value is “+3.5 ± 0.25 g”.
